Test results from PubChem BioAssay AID1645866 (Buhrlage Lab, Dana-Farber Cancer Institute and Novartis …, 2021).
Activity calls are given as the source filed them.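 The calls were made as follows: active = in confirmatory dose-response testing, peak deubiquitinase inhibition of 30% or more; inactive = the rest.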

Biological target: Ubiquitin carboxyl-terminal hydrolase 28 (Homo sapiens) (UniProt Q96RU2)
Experiment: Ubiquitin-specific peptidase 28 DUB inhibitors, biochemical concentration-dependence assay, validation of primary screening hits (AID 1645866)
Details: purified USP28, ubiquitin-rhodamine fluorescence, 30 min

Chain of Ubiquitin carboxyl-terminal hydrolase 28 (Homo sapiens) (Q96RU2 whole entry, looked up): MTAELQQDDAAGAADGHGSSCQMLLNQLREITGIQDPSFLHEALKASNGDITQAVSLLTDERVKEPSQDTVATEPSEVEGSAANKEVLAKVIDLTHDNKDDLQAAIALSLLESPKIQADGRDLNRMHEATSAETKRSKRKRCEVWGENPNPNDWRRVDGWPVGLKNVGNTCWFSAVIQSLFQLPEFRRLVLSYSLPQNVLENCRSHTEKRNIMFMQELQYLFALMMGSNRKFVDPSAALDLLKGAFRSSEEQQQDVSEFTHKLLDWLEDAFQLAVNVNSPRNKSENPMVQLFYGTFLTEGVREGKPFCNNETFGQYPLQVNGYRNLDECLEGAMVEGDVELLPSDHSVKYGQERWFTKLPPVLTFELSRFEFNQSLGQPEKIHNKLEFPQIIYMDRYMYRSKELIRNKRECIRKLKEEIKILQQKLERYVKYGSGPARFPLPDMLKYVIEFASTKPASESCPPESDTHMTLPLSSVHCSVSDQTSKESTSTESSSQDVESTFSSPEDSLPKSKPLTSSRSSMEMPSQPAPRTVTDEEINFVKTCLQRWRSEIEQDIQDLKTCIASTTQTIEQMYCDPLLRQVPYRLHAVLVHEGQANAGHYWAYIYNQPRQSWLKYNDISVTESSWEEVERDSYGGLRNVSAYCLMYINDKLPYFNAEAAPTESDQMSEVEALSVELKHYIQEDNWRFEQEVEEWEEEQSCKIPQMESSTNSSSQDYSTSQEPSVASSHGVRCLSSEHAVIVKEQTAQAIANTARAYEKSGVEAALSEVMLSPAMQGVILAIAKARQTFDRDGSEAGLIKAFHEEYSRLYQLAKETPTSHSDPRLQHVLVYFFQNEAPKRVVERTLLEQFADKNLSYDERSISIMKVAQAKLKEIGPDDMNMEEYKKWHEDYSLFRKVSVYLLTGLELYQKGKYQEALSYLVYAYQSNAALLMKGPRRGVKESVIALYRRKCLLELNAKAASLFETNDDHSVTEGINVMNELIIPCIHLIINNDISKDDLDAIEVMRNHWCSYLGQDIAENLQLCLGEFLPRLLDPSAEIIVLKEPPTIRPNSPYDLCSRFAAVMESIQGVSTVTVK

Row | SMILES | IC50
1 | C=C1CCC2[C@](C)(CCC[C@]2(C)C(=O)OC)[C@H]1CCc1ccoc1/C=C/C(=O)O (stereo partly specified) | 29.1 µM
2 | Cc1nn(-c2ccccc2)c(C)c1C(=O)OCC(=O)Nc1cccc(Br)c1 | 2.72 µM
3 | Nc1ncnc2c1ncn2[C@@H]1O[C@H](CO)C[C@@H]1O | 26.4 µM
4 | CCOC(=O)[C@@H]1[C@@H](c2ccccc2)CN2CCN(C(=O)c3cnccn3)C[C@H]12 | > 50 µM (inactive)
5 | COc1ccc(-c2cc(-c3ccc(O)cc3)nc(N)c2C#N)cc1OC | 32.6 µM
6 | COc1cccc(NC(=O)C2C3C=CC4(O3)C2C(=O)N(CCc2ccccc2Cl)C4C(=O)NC2CCCCC2)c1 (stereo unspecified) | 26.1 µM
7 | CC(C)Cc1nc2oc3c(N(C)CCO)ncnc3c2c2c1CCC2 | > 50 µM (inactive)
8 | CCCCN(C)C(=O)c1cc2c(=O)n3cccc(C)c3nc2n1Cc1ccccc1 | > 50 µM (inactive)
9 | CCOc1ccccc1NC(=O)COc1cc(OC)ccc1C(=O)c1ccccc1 | 4.45 µM
10 | O=C(Cc1noc2ccccc12)N1CCN(c2ccc([N+](=O)[O-])cc2)CC1 | > 50 µM (inactive)
11 | COc1ccccc1CNC(=O)CCCn1c(=O)c2ccccc2n(CC(=O)N2CCN(c3ccccc3)CC2)c1=O | 28.8 µM
12 | CNC(=O)c1cc2nc(N(C)C)n(-c3ccccc3)c2s1 | 27.1 µM
13 | CC(C)C(=O)Nc1ccc(N2CCN(Cc3ccc(F)cc3)C2=O)nc1 | 19.3 µM
14 | COc1ccc(C(=O)CCN2CCOCC2)cc1[N+](=O)[O-] | > 50 µM (inactive)
15 | COc1cc(NC(=O)Cn2nc(-c3ccc(F)cc3)ccc2=O)ccc1-n1cnnn1 | 1.98 µM
16 | CCOC(=O)c1ccc(NC(=O)COc2cccc3c2CCN(CC)C3=O)cc1 | 5.4 µM
17 | COC(=O)c1ccc(C(=O)Nc2cc3ccccc3cc2NC(=O)c2ccc(C(=O)OC)cc2)cc1 | 2.78 µM
18 | Clc1cccc(N2CCN(c3ncnc4nc[nH]c34)CC2)c1 | 39.5 µM
19 | Cc1ccc(-c2noc(-c3nnc(SCC(=O)NC4CCCC4)n3C)n2)cc1 | inactive
20 | COc1ccc(C(=O)Nc2sc3c(c2C(=O)NCc2cccnc2)CCCC3)cc1 | 11.8 µM
21 | O=C(COc1cccc2ccc(N3CCC(Cc4ccccc4)CC3)nc12)NCc1ccc(F)cc1 | 20.7 µM
22 | COc1ccc(NC(=O)CSc2nc(N)c3c4c(sc3n2)COC(C)(C)C4)cc1 | 45.9 µM
23 | CCCn1c(=O)n(CC(=O)c2ccccc2F)c2c(C(N)=O)nc(-c3ccco3)nc21 | > 50 µM (inactive)

Row | SMILES | IC50
24 | COc1ccc(S(=O)(=O)N2CCN3Cc4ccccc4N(C)CC3C2)cc1 (stereo unspecified) | > 50 µM (inactive)
25 | Cc1cc(C(=O)Nc2ccc3c(c2)OCCO3)no1 | 9.47 µM
26 | CC(NC(=O)c1ccccc1)c1nc2ccccc2n1CC(=O)Nc1ccc2c(c1)OCO2 (stereo unspecified) | 2.11 µM
27 | CCCc1nc2sc3c(NC4CCCCC4)ncnc3c2c2c1CCC2 | < 0.05 µM
28 | COC1C(O)=C2C(=O)O/C(C)=C/C=C/C=C/C=C/CC(c3ccccc3)NC(=O)/C=C/C=C/C=C\C=C\C2(C)C1O (stereo unspecified) | > 50 µM (inactive)
29 | CCOCCCn1c(SCC(=O)Nc2ccccc2C(F)(F)F)nc2ccccc2c1=O | 17 µM
30 | O=c1ccc(-c2noc(-c3ccc4cc[nH]c4c3)n2)c[nH]1 | > 50 µM (inactive)
31 | CCCCCC(O)c1c(O)cc2c(c1O)C(=O)c1c(O)cc(O)cc1C2=O (stereo unspecified) | > 50 µM (inactive)
32 | CNS(=O)(=O)c1ccc(CNC(=O)c2cc(-c3ccc(C)cc3)no2)cc1 | 21 µM
33 | O=C(NCc1ccccc1)c1ccc(-c2ccc(N3CCCC3)nn2)cc1 | > 50 µM (inactive)
34 | N#Cc1c(Cl)cccc1Oc1ccc(S(=O)(=O)N2CCC(O)CC2)cc1 | 19.5 µM
35 | Cn1c(CCN2CCCC2)nc2cc(NC(=O)c3ccccc3)ccc21 | > 50 µM (inactive)
36 | CCc1cc(=O)n(CC(=O)Nc2cc(C)ccc2OC)c(N2CCOCC2)n1 | 26.2 µM
37 | Cc1oc(-c2ccc(C(=O)NCC3COCCO3)cc2)nc1CN1CCc2ccccc21 (stereo unspecified) | 38.8 µM
38 | NC(=O)c1nnn(-c2ccc(NC(=O)c3ccc(F)c(F)c3)cc2)n1 | 11.2 µM
39 | CCOc1ccc(NC(=O)Cn2c(=O)n(CC(=O)NCc3ccc(C)cc3)c(=O)c3sccc32)cc1 | 8.61 µM
40 | COc1ccc2nc(NC(=O)C(CC(C)C)NS(=O)(=O)c3ccc4c(c3)CCN4C(C)=O)sc2c1 (stereo unspecified) | 26 µM
41 | O=C(NCc1ccc2c(c1)OCO2)c1ccc(C2SCC(=O)N2Cc2ccco2)cc1 (stereo unspecified) | > 50 µM (inactive)
42 | Cc1nc(SCC#N)c2oc3ccccc3c2n1 | 40 µM
43 | O=C(Nc1ccc2c(c1)N(C(=O)C1CCCC1)CC2)c1c(F)cccc1F | 0.15 µM
44 | COc1ccc(-n2ccc(=O)c(-c3nc(-c4ccccc4F)no3)n2)cc1OC | > 50 µM (inactive)
45 | CC1=C[C@H]2N(c3ccc(C)cc31)[C@H](C(=O)c1cccs1)[C@@H](C(=O)c1ccc(F)cc1)[C@]21C(=O)Nc2ccccc21 | > 50 µM (inactive)
46 | COc1ccc(N(CC(=O)Nc2cccc(F)c2)S(=O)(=O)c2ccc(OC)c(OC)c2)cc1 | 18.9 µM
